Results published in PubChem BioAssay AID330 (DTP/NCI, 2004).
Several values for one entry are separate records, joined by “and”; a condition that tells them apart may be missing. Equal values may be shown once. Toxic doses and inconclusive results are not listed. Square brackets hold non-standard residues; d marks the D form. Peptide text beside a SMILES is read from it. * marks the point of attachment. Cbz = O=C(OCc1ccccc1)*; Nva = CCC[CH](N)C(=O)O

System: P388 leukemia ip, CD2F1 mice, survival T/C
Test: NCI In Vivo Anticancer Drug Screen. Data for tumor model P388 Leukemia (intraperitoneal) in CD2F1 (CDF1) mice
Conditions: endpoint: median survival time, higher = longer survival
Procedure, shortened: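 Mice carrying the transplanted tumor received test compound or vehicle. Survival was recorded in each group, and the value is the treated-group measurement divided by that of the vehicle-treated control group.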

[1] = dose: 50.0 mg/kg/injection, schedule: Q01DX005 (ip), vehicle: saline with Tween-80
[2] = dose: 100.0 mg/kg/injection, schedule: Q01DX005 (ip), vehicle: saline with Tween-80
[3] = dose: 200.0 mg/kg/injection, schedule: Q01DX005 (ip), vehicle: saline with Tween-80
[4] = dose: 60.0 mg/kg/injection, schedule: Q01DX005 (ip), vehicle: saline with Tween-80
[5] = dose: 120.0 mg/kg/injection, schedule: Q01DX005 (ip), vehicle: saline with Tween-80

With `COc1ccc2c(c1OC)C(N1CCc3cc4c(cc3C1=O)OCO4)OC2=O` (stereo not given) the T/C (dose: 12.5 mg/kg/injection, schedule: Q01DX001 (ip), vehicle: saline + alcohol) was 89 % of control, the T/C (dose: 25.0 mg/kg/injection, schedule: Q01DX001 (ip), vehicle: saline + alcohol) was 87 % of control and the T/C (dose: 50.0 mg/kg/injection, schedule: Q01DX001 (ip), vehicle: saline + alcohol) was 87 % of control.

In the case of `CCCC(NC(=O)OCc1ccccc1)C(=O)NC(Cc1ccccc1)C(N)=O` (stereo not given) (Cbz-[Nva]-Phe-NH2; configuration not given here), the T/C (dose: 50.0 mg/kg/injection, schedule: Q01DX005 (ip), vehicle: Klucel (hydroxypropylcellulose) (HPC)) is reported as 89 % of control, the T/C (dose: 100.0 mg/kg/injection, schedule: Q01DX005 (ip), vehicle: Klucel (hydroxypropylcellulose) (HPC)) is reported as 97 % of control and the T/C (dose: 200.0 mg/kg/injection, schedule: Q01DX005 (ip), vehicle: Klucel (hydroxypropylcellulose) (HPC)) is reported as 88 % of control.

In the case of `O=C1CSC(c2c(Cl)cccc2[N+](=O)[O-])N1c1nncs1` (stereo not given), the T/C (dose: 100.0 mg/kg/injection, schedule: Q04DX002 (ip), vehicle: saline with Tween-80) is reported as 87 % of control, the T/C (dose: 200.0 mg/kg/injection, schedule: Q04DX002 (ip), vehicle: saline with Tween-80) is reported as 87 % of control and the T/C (dose: 400.0 mg/kg/injection, schedule: Q04DX002 (ip), vehicle: saline with Tween-80) is reported as 92 % of control.

With `CC(=O)OC1C=CCC2C(=O)OC(=O)C12` (stereo not given) the T/C (dose: 30.0 mg/kg/injection, schedule: Q01DX005 (ip), vehicle: Klucel (hydroxypropylcellulose) (HPC)) was 103 % of control and 90 % of control, the T/C (dose: 60.0 mg/kg/injection, schedule: Q01DX005 (ip), vehicle: Klucel (hydroxypropylcellulose) (HPC)) was 100 % of control and the T/C (dose: 120.0 mg/kg/injection, schedule: Q01DX005 (ip), vehicle: Klucel (hydroxypropylcellulose) (HPC)) was 105 % of control and 90 % of control.

In the case of `C[CH2][Sn]([Cl])([Cl])[CH2]C`, the T/C (dose: 1.56 mg/kg/injection, schedule: Q04DX003 (ip), vehicle: saline) is reported as 104 % of control, the T/C (dose: 3.12 mg/kg/injection, schedule: Q04DX003 (ip), vehicle: saline) is reported as 111 % of control and 113 % of control and 116 % of control and the T/C (dose: 6.25 mg/kg/injection, schedule: Q04DX003 (ip), vehicle: saline) is reported as 118 % of control [middle of 5 runs]. The T/C (dose: 12.5 mg/kg/injection, schedule: Q04DX003 (ip), vehicle: saline) was 121 % of control and 101 % of control and 115 % of control and the T/C (dose: 25.0 mg/kg/injection, schedule: Q04DX003 (ip), vehicle: saline) was 153 % of control.

For `CCn1nc(C(=O)O)c(=O)c2cc3c(cc21)OCO3`, the T/C (dose: 50.0 mg/kg/injection, schedule: Q01DX009 (ip), vehicle: Klucel (hydroxypropylcellulose) (HPC)) was 96 % of control, the T/C (dose: 100.0 mg/kg/injection, schedule: Q01DX009 (ip), vehicle: Klucel (hydroxypropylcellulose) (HPC)) was 97 % of control and the T/C (dose: 200.0 mg/kg/injection, schedule: Q01DX009 (ip), vehicle: Klucel (hydroxypropylcellulose) (HPC)) was 98 % of control.

In the case of `OCCCCCCCCCCCN1CCOCC1`, the T/C [1] is reported as 106 % of control, the T/C [2] is reported as 98 % of control and the T/C [3] is reported as 101 % of control.

In the case of `COc1cc(/C=N/N2CN(C(C)C(=O)O)B(NCCC(C)C)N=C2N)cc(OC)c1` (stereo not given), the T/C [4] is reported as 104 % of control and the T/C [5] is reported as 111 % of control.

`O=c1c2ccccc2nnn1Cc1ccco1` was tested, and the T/C (dose: 1.25 mg/kg/injection, schedule: Q01DX005 (ip), vehicle: saline with Tween-80) was 100 % of control, the T/C (dose: 12.5 mg/kg/injection, schedule: Q01DX005 (ip), vehicle: saline with Tween-80) was 92 % of control and the T/C (dose: 25.0 mg/kg/injection, schedule: Q01DX005 (ip), vehicle: saline with Tween-80) was 100 % of control and 90 % of control. For the same molecule, the T/C [1] was 104 % of control and 90 % of control and the T/C [2] was 92 % of control and 93 % of control.

For `N#CC/C(=N\Nc1ccc([N+](=O)[O-])cc1[N+](=O)[O-])c1ccccc1`, the T/C (dose: 100.0 mg/kg/injection, schedule: Q04DX003 (ip), vehicle: saline with Tween-80) was 100 % of control, the T/C (dose: 200.0 mg/kg/injection, schedule: Q04DX003 (ip), vehicle: saline with Tween-80) was 90 % of control and the T/C (dose: 400.0 mg/kg/injection, schedule: Q04DX003 (ip), vehicle: saline with Tween-80) was 95 % of control.

In the case of `CCOC(=O)C1C2(C)NC(=O)C1(Cc1ccccc1)c1cc(C)c(C)cc1O2` (stereo not given), the T/C [1] is reported as 99 % of control, the T/C [2] is reported as 96 % of control and the T/C [3] is reported as 87 % of control.

With `CCOc1cc2c(cc1C(C)c1ccc(O)c(OC)c1)OCO2` (stereo not given) the T/C (dose: 50.0 mg/kg/injection, schedule: Q01DX005 (ip), vehicle: distilled water + Tween-80) was 99 % of control, the T/C (dose: 100.0 mg/kg/injection, schedule: Q01DX005 (ip), vehicle: distilled water + Tween-80) was 101 % of control and the T/C (dose: 200.0 mg/kg/injection, schedule: Q01DX005 (ip), vehicle: distilled water + Tween-80) was 104 % of control.

With `COC(=O)C1=COC(C)C2CN3CCc4c([nH]c5ccccc45)C3CC12` (stereo not given) the T/C [1] was 106 % of control, the T/C [4] was 100 % of control and the T/C [2] was 106 % of control. The T/C [5] was 93 % of control, the T/C [3] was 100 % of control and the T/C (dose: 240.0 mg/kg/injection, schedule: Q01DX005 (ip), vehicle: saline with Tween-80) was 90 % of control.
